In patent US10314843B2, “Combinations for the treatment of neoplasms using quiescent cell targeting and inhibitors of mitosis” (Felicitex Therapeutics, Inc., priority 2016, dated 2019):

Assays:
Assay type in all cases: cell-based
[1] = test system: SW620 cells; test: CellTiter-Glo cell viability assay, SW620 cells; conditions: Homo sapiens, SW-620, SW620 cells
From the text: (§1) The following cell lines were obtained from ATCC and cultured according to the ATCC recommendations: DMS273—small cell lung cancer cell line; H1975—non-small cell lung cancer cell line harboring L858R and T790M mutations in EGFR TK; A549—a non-small cell lung cancer cell line with wild type EGFR; LNCap—prostate cancer cell line; SW620—colon cancer cell line; MiaPaCa2—pancreatic cancer cell line; PANC1—pancreatic cancer cell line; OVCAR3—ovarian cancer cell line; SK-OV-3—ovarian cancer cell line.
(§2) For viability analysis, cells were seeded into 96-well plates at 2×10^3-6×10^3 cells/well; the plated number of cells depended on cell size and rate of proliferation aiming for approximately 50% confluency. After seeding, the cells were allowed to attach for 24 hours incubated at 37° C. in a humidified 5% CO2 atmosphere.
(§3) The treatments were performed using at least 6 different concentrations of a compound in 1:3 serial dilutions in DMSO such that the DMSO concentration in the cell medium was <1%. The cell cultures were incubated for an additional 96 hours in 5% CO2 incubator at 37° C. Treatments were performed in triplicate. Results were analyzed by CellTiter-Glo™ Luminescent Cell Viability Assay (Promega, cat. #G7571) according to the manufacturer's instructions using Spectra MAX Gemini Spectrophotometer (Molecular Devices).

[2] = test system: SK-OV-3 cells; test: CellTiter-Glo cell viability assay, SK-OV-3 cells; conditions: Homo sapiens, SK-OV-3, SK-OV-3 cells
From the text: as §1, §2, §3

[3] = test system: DMS273 cells; test: CellTiter-Glo cell viability assay, DMS273 cells; conditions: Homo sapiens, DMS-273, DMS273 cells
From the text: as §1, §2, §3

[4] = test system: A549 cells; test: CellTiter-Glo cell viability assay, A549 cells; conditions: Homo sapiens
From the text: as §1, §2, §3

[5] = test system: OVCAR3 cells; test: CellTiter-Glo cell viability assay, OVCAR3 cells; conditions: Homo sapiens, OVCAR-3, OVCAR3 cells
From the text: as §1, §2, §3

[6] = test system: HCC827 cells; test: CellTiter-Glo cell viability assay, HCC827 cells; conditions: Homo sapiens
Procedure: as §2, §3

[7] = test system: SW620 cells; test: FACS cell cycle distribution (Acridine Orange), SW620 cells; conditions: paclitaxel alone (2 nM), FBS+ media, 24 hours
From the text: as §1
(§4) Cell cultures were seeded into 6-well plates at 3×10^5-6×10^5 cells/well; the plated number of cells depended on cell size and rate of proliferation, aiming for approximately 50% confluency. After seeding, the cells were allowed to attach for 24 hours while incubated at 37° C. in a humidified 5% CO2 atmosphere, and then treated with compounds for desired amount of time (usually 24 hours) incubating under same conditions. Then the cells were harvested by trypsinization, pooled with the floating cells, washed in PBS, and fixed in 70% ice-cold ethanol overnight. For Acridine Orange (AO) staining, fixed cells were washed once with ice-cold PBS, re-suspended in 100 μL PBS, followed by addition of 200 μL of permeabilizing solution and 600 μL AO staining solution. The measurements were performed with Guava easyCyte HT flow cytometer (EMD Millipore) using the blue laser for excitation at 488 nm, monitoring emission of the AO-DNA complex at 526 nm and AO-RNA complex at 650 nm. The complete protocol and composition of buffers are described in the literature (Darzynkiewicz Z, Juan G, and Srour E F (2004) Differential Staining of DNA and RNA (2004). Current Protocols in Cytometry, Chapter 7:Unit 7.3).

[8] = test system: LNCap cells; test: CellTiter-Glo cell viability assay, LNCap cells; conditions: Homo sapiens
From the text: as §1, §2, §3

[9] = test system: DMS273 cells; test: FACS cell cycle distribution (Acridine Orange), DMS273 cells; conditions: mitotic inhibitor alone, FBS+ media, 24 hours (2.7 nM paclitaxel; 1.1 nM vincristine; 8.1 nM vinorelbine)
From the text: as §1, §4

[10] = test system: H1975 cells; test: CellTiter-Glo cell viability assay, H1975 cells; conditions: Homo sapiens, NCI-H1975, H1975 cells
From the text: as §1, §2, §3

EC50 ([1]; Compound I-5 not present) [nM]	EC50 ([1]; Compound I-5 present at 2 μM) [nM]	EC50 ([1]; Compound I-5 present at 4 μM) [nM]	EC50 ([2]; Compound I-7 not present) [nM]	EC50 ([2]; Compound I-7 present at 2 μM) [nM]	EC50 ([2]; Compound I-7 present at 4 μM) [nM]	EC50 ([4]; Compound I-7 not present) [nM]	EC50 ([4]; Compound I-7 present at 2 μM) [nM]	EC50 ([4]; Compound I-7 present at 4 μM) [nM]	EC50 ([5]; Compound I-7 not present) [nM]	EC50 ([5]; Compound I-7 present at 2 μM) [nM]	EC50 ([5]; Compound I-7 present at 4 μM) [nM]	EC50 ([6]; Compound I-7 not present) [nM]	EC50 ([2]; Compound I-7 present at 8 μM) [nM]	EC50 ([5]; Compound I-7 present at 3 μM) [nM]	EC50 ([10]; Compound I-5 not present) [nM]	SMILES	EC50 ([3]; Compound I-7 not present) [nM]	EC50 ([3]; Compound I-7 present at 2 μM) [nM]	EC50 ([3]; Compound I-7 present at 4 μM) [nM]	pharmacological quiescence (fraction of cells in G0 phase) [9]	further results
2.85	0.69	< 0.015	2.5	1.5	0.3	1.4	0.6	0.1	0.85	0.52	< 0.04	1.8	–	–	–	CC(=O)O[C@@]12CO[C@@H]1C[C@H](O)[C@@]1(C)C(=O)[C@H](O)C3=C(C)[C@@H](OC(=O)[C@H](O)[C@@H](NC(=O)OC(C)(C)C)c4ccccc4)C[C@@](O)([C@@H](OC(=O)c4ccccc4)[C@H]21)C3(C)C [docetaxel]	0.64	0.38	0.14	–	EC50 ([6]; Compound I-7 present at 2 μM): 0.6 nM; EC50 ([6]; Compound I-7 present at 4 μM): 0.03 nM
8.1	2.3	0.2	9.7	9.4	4.8	4.8	–	–	3.3	–	–	4.2	4.7	2.8	–	CC(=O)O[C@H]1C(=O)[C@@]2(C)[C@H]([C@H](OC(=O)c3ccccc3)[C@]3(O)C[C@H](OC(=O)[C@H](O)[C@@H](NC(=O)c4ccccc4)c4ccccc4)C(C)=C1C3(C)C)[C@]1(OC(C)=O)CO[C@@H]1C[C@@H]2O [paclitaxel]	2.7	1.9	0.9	does not result in pharmacological quiescence	EC50 ([2]; Compound I-7 present at 10 μM): 5.2 nM; pharmacological quiescence (fraction of cells in G0 phase) [7]: does not result in pharmacological quiescence; EC50 ([4]; Compound I-7 present at 3 μM): 2.5 nM; EC50 ([4]; Compound I-7 present at 6 μM): 0.7 nM; EC50 ([5]; Compound I-7 present at 6 μM): 1.7 nM; EC50 ([6]; Compound I-7 present at 3 μM): 2.5 nM; EC50 ([6]; Compound I-7 present at 6 μM): 0.6 nM; EC50 ([8]; Compound I-5 not present): 3.2 nM; EC50 ([8]; Compound I-5 present at 2 μM): 2.1 nM; EC50 ([8]; Compound I-5 present at 4 μM): 0.9 nM
–	–	–	8.7	–	2.1	–	–	–	1.2	0.8	0.1	–	1	–	1.5	CC[C@]1(O)C[C@H]2CN(CCc3c([nH]c4ccccc34)[C@@](C(=O)OC)(c3cc4c(cc3OC)N(C=O)[C@H]3[C@@](O)(C(=O)OC)[C@H](OC(C)=O)[C@]5(CC)C=CCN6CC[C@]43[C@@H]65)C2)C1 [vincristine]	–	–	–	does not result in pharmacological quiescence	EC50 ([10]; Compound I-5 present at 2 μM): 0.85 nM; EC50 ([10]; Compound I-5 present at 4 μM): 0.35 nM; EC50 ([3]; Compound I-5 not present): 1.1 nM; EC50 ([3]; Compound I-5 present at 2 μM): 0.4 nM; EC50 ([3]; Compound I-5 present at 4 μM): < 0.04 nM
–	–	–	15.1	10.1	4.7	27	16	6	2.4	–	–	–	–	0.1	9.5	CCC1=C[C@@H]2CN(C1)Cc1c([nH]c3ccccc13)[C@@](C(=O)OC)(c1cc3c(cc1OC)N(C)[C@H]1[C@@](O)(C(=O)OC)[C@H](OC(C)=O)[C@]4(CC)C=CCN5CC[C@]31[C@@H]54)C2 [vinorelbine]	–	–	–	does not result in pharmacological quiescence	EC50 ([10]; Compound I-5 present at 2 μM): 5.2 nM; EC50 ([10]; Compound I-5 present at 4 μM): 2.1 nM; EC50 ([3]; Compound I-5 not present): 1.1 nM; EC50 ([3]; Compound I-5 present at 2 μM): 0.4 nM; EC50 ([3]; Compound I-5 present at 4 μM): < 0.04 nM; EC50 ([5]; Compound I-7 present at 1 μM): 2.4 nM
